Laboratory results published in ChEMBL document CHEMBL6109039, “Designed and synthesized novel tripeptides targeting diabetes and its related pathologies” (Eur J Med Chem, 2025).
Residues, ends and D or L forms follow the SMILES beside them.

Tests used:
Albumin [1] = molecular target: T1, Albumin (Homo sapiens, UniProt P02768); assay: Inhibition of D-fructose glycation in human serum albumin model incubated for 14 days by UV spectroscopic analysis relative to control; settings: 336 h, time 14 day
T1 sequence (P02768 whole entry): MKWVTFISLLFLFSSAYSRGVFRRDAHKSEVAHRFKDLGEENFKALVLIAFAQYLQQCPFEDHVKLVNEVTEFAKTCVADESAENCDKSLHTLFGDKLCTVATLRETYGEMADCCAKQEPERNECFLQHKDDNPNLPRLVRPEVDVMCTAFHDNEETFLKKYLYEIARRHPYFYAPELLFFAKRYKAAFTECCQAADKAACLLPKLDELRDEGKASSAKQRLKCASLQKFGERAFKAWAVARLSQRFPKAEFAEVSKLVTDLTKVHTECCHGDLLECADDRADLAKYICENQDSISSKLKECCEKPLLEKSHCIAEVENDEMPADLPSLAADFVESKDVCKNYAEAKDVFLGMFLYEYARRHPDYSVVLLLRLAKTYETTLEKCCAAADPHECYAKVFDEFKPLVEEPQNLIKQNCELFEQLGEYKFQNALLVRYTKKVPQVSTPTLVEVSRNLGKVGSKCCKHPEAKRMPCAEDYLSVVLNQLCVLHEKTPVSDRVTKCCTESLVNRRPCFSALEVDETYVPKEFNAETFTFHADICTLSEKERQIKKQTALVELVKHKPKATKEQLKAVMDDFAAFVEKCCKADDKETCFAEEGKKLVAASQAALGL

Alpha glucosidase = Alpha glucosidase (Homo sapiens, UniProt O43451+P10253+P14410+Q2M2H8); assay: Inhibition of Alpha-glucosidase (unknown origin) using p-nitrophenyl-alpha-D-glucopyranoside as substrate pre-incubated for 10 mins followed by substrate addition and measured after 5 mins by spectrophotometric analysis; format: protein assay
Albumin [2] = molecular target: T1, Albumin; assay: Inhibition of D-fructose glycation in human serum albumin model by measuring absorbance at 279 nm incubated for 5 days by UV spectroscopic analysis (reference value: 1.056); settings: 120 h, time 5 day
Albumin [3] = molecular target: T1, Albumin; assay: Inhibition of D-fructose glycation in human serum albumin model by measuring absorbance at 279 nm incubated for 30 days by UV spectroscopic analysis (reference value: 2.323); settings: 720 h, time 30 day
Albumin [4] = molecular target: T1, Albumin; assay: Inhibition of D-glucose glycation in human serum albumin model by measuring absorbance at 279 nm incubated for 7 days by UV spectroscopic analysis (reference value: […]); settings: 168 h, time 7 day
Albumin [5] = molecular target: T1, Albumin; assay: Inhibition of D-glucose glycation in human serum albumin by measuring absorbance at 279 nm model incubated for 14 days by UV spectroscopic analysis (reference value: 2.302); settings: 336 h, time 14 day
Albumin [6] = molecular target: T1, Albumin; assay: Inhibition of D-glucose glycation in human serum albumin model by measuring absorbance at 279 nm incubated for 30 days by UV spectroscopic analysis (reference value: 2.295); settings: 720 h, time 30 day
Albumin [7] = molecular target: T1, Albumin; assay: Inhibition of D-fructose glycation in human serum albumin model by measuring ketoamine moieties incubated for 5 days by Nitroblue tetrazolium (NBT) reduction assay (reference value: 111.94 nmol/mL); settings: 120 h, time 5 day
Albumin [8] = molecular target: T1, Albumin; assay: Inhibition of D-fructose glycation in human serum albumin model by measuring ketoamine moieties incubated for 14 days by Nitroblue tetrazolium (NBT) reduction assay (reference value: 129.58 nmol/mL); settings: 336 h, time 14 day
Albumin [9] = molecular target: T1, Albumin; assay: Inhibition of D-fructose glycation in human serum albumin model by measuring ketoamine moieties incubated for 30 days by Nitroblue tetrazolium (NBT) reduction assay (reference value: 128.71 nmol/mL); settings: 720 h, time 30 day
Albumin [10] = molecular target: T1, Albumin; assay: Inhibition of D-fructose glycation in human serum albumin model by measuring ketoamine moieties incubated for 33 days by Nitroblue tetrazolium (NBT) reduction assay (reference value: 144.33 nmol/mL); settings: 792 h, time 33 day
Albumin [11] = molecular target: T1, Albumin; assay: Inhibition of D-glucose glycation in human serum albumin model by measuring ketoamine moieties incubated for 30 days by Nitroblue tetrazolium (NBT) reduction assay (reference value: 27.85 nmol/mL); settings: 720 h, time 30 day
Albumin [12] = molecular target: T1, Albumin; assay: Inhibition of D-glucose glycation in human serum albumin model by measuring ketoamine moieties incubated for 33 days by Nitroblue tetrazolium (NBT) reduction assay (reference value: 66.64 nmol/mL); settings: 792 h, time 33 day
Mus musculus [13] = assay: Antidiabetic activity in Nicotinamide/Streptozotocin induced male Balb/c mouse model assessed as change in body weight at 63.81 ug/kg, ip treated for 21 days (reference value: 16.62 +/- 0.83 g); format: functional; settings: dose 63.81 µg/kg, time 21 day
Mus musculus [14] = assay: Antidiabetic activity in Nicotinamide/Streptozotocin induced male Balb/c mouse model assessed as change in body weight at 63.81 ug/kg, ip treated for 21 days relative to control; format: functional; settings: dose 63.81 µg/kg, time 21 day
Mus musculus [15] = assay: Antidiabetic activity in Nicotinamide/Streptozotocin induced male Balb/c mouse model assessed as relative liver weight at 63.81 ug/kg, ip treated for 21 days (reference value: 0.77 +/- 0.04 mg/g); format: functional; settings: dose 63.81 µg/kg, time 21 day
Mus musculus [16] = assay: Antidiabetic activity in Nicotinamide/Streptozotocin induced male Balb/c mouse model assessed as reduction in HDL-cholesterol level in blood at 63.81 ug/kg, ip treated for 21 days (reference value: 30 +/- 1.80 mg/dL); format: functional; settings: dose 63.81 µg/kg, time 21 day
Mus musculus [17] = assay: Antidiabetic activity in Nicotinamide/Streptozotocin induced male Balb/c mouse model assessed as reduction in Triglycerides level in blood at 63.81 ug/kg, ip treated for 21 days (reference value: 61 +/- 3.05 mg/dL); format: functional; settings: dose 63.81 µg/kg, time 21 day
Mus musculus [18] = assay: Antidiabetic activity in Nicotinamide/Streptozotocin induced male Balb/c mouse model assessed as reduction in aspartate transaminase level in blood at 63.81 ug/kg, ip treated for 21 days (reference value: 171 +/- 8.55 U/L); format: functional; settings: dose 63.81 µg/kg, time 21 day
Mus musculus [19] = assay: Antidiabetic activity in Nicotinamide/Streptozotocin induced male Balb/c mouse model assessed as reduction in alanine aminotransferase level in blood at 63.81 ug/kg, ip treated for 21 days (reference value: 111 +/- 5.05 U/L); format: functional; settings: dose 63.81 µg/kg, time 21 day
Mus musculus [20] = assay: Antidiabetic activity in Nicotinamide/Streptozotocin induced male Balb/c mouse model assessed as TC/HDL-Cholesterol ratio in blood at 63.81 ug/kg, ip treated for 21 days (reference value: 4.03); format: functional; settings: dose 63.81 µg/kg, time 21 day
Mus musculus [21] = assay: Antidiabetic activity in Nicotinamide/Streptozotocin induced male Balb/c mouse model assessed as LDL-Cholesterol/HDL-Cholesterol ratio in blood at 63.81 ug/kg, ip treated for 21 days (reference value: 1.53); format: functional; settings: dose 63.81 µg/kg, time 21 day
Mus musculus [22] = assay: Antidiabetic activity in Nicotinamide/Streptozotocin induced male Balb/c mouse model assessed as Non-HDL-Cholesterol level in blood at 63.81 ug/kg, ip treated for 21 days (reference value: 75 mg/dL); format: functional; settings: dose 63.81 µg/kg, time 21 day
Mus musculus [23] = assay: Antidiabetic activity in Nicotinamide/Streptozotocin induced male Balb/c mouse model assessed as reduction in fasting blood glucose levels at 63.81 ug/kg, ip measured immediately by glucometer analysis (reference value: 127.50 +/- 6.87 mg/dl); format: functional; settings: dose 63.81 µg/kg
Mus musculus [24] = assay: Antidiabetic activity in Nicotinamide/Streptozotocin induced male Balb/c mouse model assessed as reduction in fasting blood glucose levels at 63.81 ug/kg, ip measured after 14 days by glucometer analysis (reference value: 168.5 +/- 8.42 mg/dl); format: functional; settings: dose 63.81 µg/kg, time 14 day
Mus musculus [25] = assay: Antidiabetic activity in Nicotinamide/Streptozotocin induced male Balb/c mouse model assessed as reduction in fasting blood glucose levels at 63.81 ug/kg, ip measured after 21 days by glucometer analysis (reference value: 180.5 +/- 9.02 mg/dl); format: functional; settings: dose 63.81 µg/kg, time 21 day
Mus musculus [26] = assay: Antidiabetic activity in Nicotinamide/Streptozotocin induced male Balb/c mouse model assessed as reduction in HbA1c levels at 63.81 ug/kg, ip treated for 21 days by Turbidimetric immunoassay; format: functional; set-up: scale not given: the % may be the effect or the level left; settings: dose 63.81 µg/kg, time 21 day

- inhibition (INH) (Albumin [1]): 16.45%
- IC50 (Alpha glucosidase): 98 µM
- OD (Albumin [2]): 0.482
- OD (Albumin [3]): 1.591
- OD (Albumin [4]): 0.434
- OD (Albumin [5]): 0.443
- OD (Albumin [6]): 2.555
- Activity (Albumin [7]): 90.74 nmol/mL
- Activity (Albumin [8]): 91.22 nmol/mL
- Activity (Albumin [9]): 108.46 nmol/mL
- Activity (Albumin [10]): 109.89 nmol/mL
- Activity (Albumin [11]): 18.908 nmol/mL
- Activity (Albumin [12]): 18.433 nmol/mL
Compound: N=C(N)NCCC[C@H](N)C(=O)N[C@@H](Cc1c[nH]c2ccccc12)C(=O)N[C@@H](Cc1c[nH]c2ccccc12)C(=O)O (H-Arg-Trp-Trp-OH)
- Activity (Mus musculus [13]): 30.38 g
- Activity (Mus musculus [14]): 2.7%
- Activity (Mus musculus [15]): 1.22 mg/g
- Activity (Mus musculus [16]): 41 mg/dL
- Activity (Mus musculus [17]): 53 mg/dL
- Activity (Mus musculus [18]): 152 U/L
- Activity (Mus musculus [19]): 97 U/L
- Ratio (Mus musculus [20]): 2.63
- Ratio (Mus musculus [21]): 0.75
- Activity (Mus musculus [22]): 67 mg/dL
- Activity (Mus musculus [23]): 111.5 mg/dL
- Activity (Mus musculus [24]): 134 mg/dL
- Activity (Mus musculus [25]): 115 mg/dL
- Activity (Mus musculus [26]): 7.2%
